Laboratory results: patent US8450333B2, “Molecules for regulating cell death” (The Regents of The University of California, priority 2003, dated 2013)

Legend:
yeast cells = test: Time-lapse fluorescence microscopy of mitochondrial fission and fusion events in yeast; format: cell-based, S. cerevisiae; conditions: time-lapse after drug addition
Source text: To distinguish whether compounds specifically affect mitochondrial fission or fusion, we directly measure the rates of these events by examining the behavior of mitochondria using time-lapse fluorescence microscopy after drug addition. We routinely perform this type of experiment using a DeltaVision deconvolution microscope.
(§1) Formally, the small molecules we identified could produce their phenotypes by either inhibiting or activating fission or fusion. To distinguish the exact effects of mfisi-1 and other small molecules identified in our screens on mitochondrial dynamics, we have directly measured the rates of fission and fusion events after drug addition in yeast cells by examining the behavior of mitochondria using time-lapse fluorescence microscopy. […] In contrast, in DMSO treated control cells, both fission and fusion events were easily detected in the same time frame.

Δdnm1 cells = test: Mitochondrial morphology in Δdnm1 yeast cells; format: cell-based
Source text: as §1
To determine the target of mfisi-2, we will characterize this small molecule using the assays for fission. We will also determine whether mfisi-2 affects mitochondrial morphology in mammalian cells. If this is the case, then mfisi-2 might inhibit mitochondrial fission by affecting conserved fission-related activities. […] If mfisi-2 produces mitochondrial net-like structures in mammalian cells, we will determine its effects on apoptosis as described previously. Prioritization and characterization of potential mitochondrial fusion inhibitors In our screens for mitochondrial fusion inhibitors, we identified a total of 37 compounds. […] To determine whether fragmentation in drug-treated cells is strictly dependent upon Dnm1-dependent fission, we determined the effects of these small molecules on mitochondrial morphology in Δdnm1 cells. […]

wild type yeast cells = test: Mitochondrial morphology in yeast (secondary screen, mitochondrial targeted GFP); format: cell-based, S. cerevisiae
Source text: Secondary screens: Compounds identified in the primary growth assay-based screens outlined above are screened secondarily by examining their effects on mitochondrial morphology. We use the steady state structure of mitochondria as an indicator of the relative rates of mitochondrial fission and fusion in cells. […] Mitochondria are visualized using a mitochondrial targeted GFP that is efficiently targeted to both wild type and respiratory deficient mitochondria (Tieu et al., 2000 The Journal of Cell Biology 151, 353-365.).
All compounds identified in the primary growth assay-based screens outlined above were screened secondarily by examining their effects on mitochondrial morphology in yeast. From previous work, we know that the steady state structure of mitochondria is an indicator of the relative rates of mitochondrial fission and fusion in cells (FIG. 7). Specifically, net-like structures indicate a block in fission, and fragmented mitochondrial structures indicate a block in fusion. […] In this secondary assay, small molecules were judged to be a hit if they produced a mutant phenotype in greater than 5% of the cell population.
To determine what structural features are important for the effects of mfisi-1 on mitochondrial fission, we identified structurally related molecules using a chemoinformatics approach. We utilized web-based ChemNavigator to search available public and commercial compound databases for small molecules that uniquely represented key structural features of mfisi-1. We tested a total of 15 small molecules related to mfisi-1 for their effects on mitochondrial morphology in yeast, each at a concentration of 50 μM (Table 3).

[1] = system: actin cytoskeleton and peripheral ER network; test: Actin cytoskeleton and peripheral ER network in yeast; format: cell-based; conditions: 100 μM, versus DMSO-treated cells, n=50
Source text: These structures are routinely examined in yeast mitochondrial morphology mutants as a test for the specificity of the mitochondrial phenotype.

dynamin-1 = target: T1, dynamin-1 (Homo sapiens, UniProt Q05193); test: Assembly-stimulated GTP hydrolysis by dynamin-1; format: biochemical
T1 sequence (Q05193 1-864): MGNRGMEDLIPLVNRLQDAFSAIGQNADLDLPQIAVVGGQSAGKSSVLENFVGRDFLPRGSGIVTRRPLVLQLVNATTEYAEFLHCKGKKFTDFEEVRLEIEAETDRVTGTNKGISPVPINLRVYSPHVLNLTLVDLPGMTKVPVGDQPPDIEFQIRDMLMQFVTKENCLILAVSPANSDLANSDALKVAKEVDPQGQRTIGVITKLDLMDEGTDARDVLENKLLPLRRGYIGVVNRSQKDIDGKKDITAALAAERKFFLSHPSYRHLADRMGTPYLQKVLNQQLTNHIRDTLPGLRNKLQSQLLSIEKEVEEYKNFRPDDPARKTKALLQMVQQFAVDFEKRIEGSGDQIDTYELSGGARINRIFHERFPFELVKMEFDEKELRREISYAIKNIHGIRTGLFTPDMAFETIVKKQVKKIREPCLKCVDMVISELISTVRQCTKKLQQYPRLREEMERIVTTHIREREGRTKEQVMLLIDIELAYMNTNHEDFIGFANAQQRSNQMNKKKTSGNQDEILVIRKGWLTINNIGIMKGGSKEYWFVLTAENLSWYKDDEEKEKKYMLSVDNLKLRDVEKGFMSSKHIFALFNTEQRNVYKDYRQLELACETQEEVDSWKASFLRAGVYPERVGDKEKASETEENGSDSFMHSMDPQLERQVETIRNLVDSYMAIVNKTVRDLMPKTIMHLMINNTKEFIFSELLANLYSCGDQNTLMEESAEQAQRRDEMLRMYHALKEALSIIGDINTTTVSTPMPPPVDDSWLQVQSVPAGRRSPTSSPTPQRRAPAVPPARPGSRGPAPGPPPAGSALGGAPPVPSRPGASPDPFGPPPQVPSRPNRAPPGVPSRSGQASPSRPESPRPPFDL
Source text: Our observations raise the question of whether mfisi-1 is simply a general inhibitor of GTPase super family members and/or DRPs. It seems unlikely that mfisi-1 is an inhibitor of all GTPase superfamily members, given that it has no effect on GTPase-dependent activities, such as maintenance of the actin cytoskeleton. To more directly address this question, however, we examined the effects of mfisi-1 on the DRP, dynamin-1, which functions during endocytosis in the scission of clathrin coated pits from the plasma membrane. […] We will continue to explore the specificity of mfisi-1 for DRPs by determining its effects on the mammalian Dnm1 ortholog, Drp1. […] Taken together, our data are consistent with mfisi-1 functioning in vivo as a selective inhibitor of the dynamin-related GTPase, Dnm1, to block mitochondrial fission.

[2] = Structure Function Analysis of A1, A2, and A3, fraction of yeast cells
[3] = fraction of wild type yeast cells

COc1cc(-n2c(S)nc3ccccc3c2=O)c(Cl)cc1Cl [mfisi-1, 3-(2,4-Dichloro-5-methoxy-phenyl)-2-mercapto-3H-quinazolin-4-one]
mitochondrial fission events / rate of fission (yeast cells): no detectable fission events were observed
mitochondrial fusion events / rate of fusion (yeast cells): fusion events occurred
effect on mitochondrial morphology in Δdnm1 cells (Δdnm1 cells): did not change the net-like morphology
effect on mitochondrial morphology in yeast cells (wild type yeast cells): caused the formation of mitochondrial net-like structures
IC50 (wild type yeast cells; Saccharomyces cerevisiae, read-out: IC50, formation of net-like mitochondria): 10 to 20 µM
Fragmented (wild type yeast cells; [2]): .05
Nets (wild type yeast cells; [2]): .55
Reticular (wild type yeast cells; [2]): .40
Mitochondrial Morphology after Drug is Added: Fragmented (wild type yeast cells; [3]): .05
Mitochondrial Morphology after Drug is Added: Nets (wild type yeast cells; [3]): .55
Mitochondrial Morphology after Drug is Added: Reticular (wild type yeast cells; [3]): .40
time after addition until net-like mitochondria form (wild type yeast cells; wild type cells, sub-μM concentrations): ≤ 1 min
% net-like structures (wild type yeast cells; yeast, each at a concentration of 50 μM): 60%
changes in actin cytoskeleton or peripheral ER network [1]: did not result in significant changes
effect on assembly-stimulated rates of GTP hydrolysis for dynamin-1 (dynamin-1): had no effect
